# Assays:
# [1] = system: ovariectomized female rats; test: Prevention of bone loss, body fat, serum cholesterol and ALP, 3-month treatment of OVX rats (Example 5A, experiment 1); assay type: in vivo, Sprague-Dawley rats; conditions: OVX rats, 3 months
# Method: (§1) Ten to twelve week-old female Sprague-Dawley rats (Crl:CD(SD)Br) (Charles River Laboratory, St-Constant, Canada) weighing approximately 220-270 g at start of treatment were used. The animals were acclimatized to the environmental conditions (temperature: 22±3° C.; humidity: 50±20%; 12-h light-12-h dark cycles, lights on at 07:15 h) for at least 1 week before starting the experiments. The animals were housed individually and were allowed free access to tap water and a pelleted certified rodent feed (Lab Diet 5002, Ralston Purina, St-Louis, Mo.). Experiments were conducted in an animal facility approved by the Canadian Council on Animal Care (CCAC) and the Association for Assessment and Accreditation of Laboratory Animal Care (AAALAC) in accordance with the CCAC Guide for Care and Use of Experimental Animals.
# On day 1 of the study, the animals of the appropriate groups were bilaterally ovariectomized (OVX) under isoflurane anesthesia. […] Treatments were initiated on day 2 of the study and were performed once daily during 3 months.
# After 3 months (experiment 1) or 26 weeks (experiment 2) of treatment, individual rats under Isoflurane anesthesia had their whole body skeleton and lumbar spine scanned using dual energy x-ray absorptiometry (DEXA; QDR 4500A, Hologic, Waltham, Mass.) and a Regional High Resolution Scan software. The bone mineral density (BMD) of the lumbar spine (vertebrae L2 to L4) and the total body composition (fat percentage) were determined.
# After 3 months (experiment 1) or 26 weeks (experiment 2) of treatment, blood samples were collected at the jugular vein from overnight fasted animals (under Isoflurane anesthesia). Samples were processed for serum preparation and frozen at −80° C. until assay. Serum cholesterol levels and alkaline phospatase activity (ALP) were determined using the Boehringer Mannheim Diagnostic Hitachi 911 Analyzer (Boehringer Mannheim Diagnostic Laboratory Systems).
# [2] = system: OVX rats having established osteopenia; test: Treatment of OVX rats having established osteopenia, 26 weeks (Example 5B): BMD, total body fat; assay type: in vivo, Sprague-Dawley rats; conditions: treatment started 10 weeks after OVX, 26 weeks daily
# Method: as §1, with “Height” for “Ten”, “nine month-old” for “twelve week-old”, “Canada)” for “Canada) weighing approximately 220-270 g at start of treatment”, “used in this experiment.” for “used.”, “prior to” for “before starting”, “ovariectomy. Animals were bilaterally ovariectomized (OVX) under isoflurane anesthesia. Twenty animals were kept intact as control.” for “experiments.”
# Treatments were initiated 10 weeks after the ovariectomy and were performed once daily during 26 weeks. Animals not receiving a test article were treated with the appropriate vehicle alone during the same period.
# Prior to the OVX, prior to the first day treatment (10 weeks after OVX) and after 26 weeks of treatment, individual rats under Isoflurane anesthesia had their whole body skeleton, lumbar spine and right femur scanned using dual energy x-ray absorptiometry (DEXA; QDR 4500A, Hologic, Waltham, Mass.) and a Regional High Resolution Scan software. The bone mineral density (BMD) of the lumbar spine (vertebrae L2 to L4), femur and the total body composition (fat percentage) were determined.
# ZR-75-1 breast tumors = test: Growth and response category of human ZR-75-1 breast tumors in OVX nude mice, 7 antiestrogens, 161 days (Example 8); assay type: in vivo
# Method: The mice (5 per cage) were housed in vinyl cages equipped with air filter lids, which were kept in laminar airflow hoods and maintained under pathogen-limiting conditions. The photoperiod was 12 hours of light and 12 hours of darkness (lights on at 07:15). Cages, bedding and food (Agway Pro-Lab R-M-H Diet #4018) were autoclaved before use. Water was autoclaved and provided ad libitum. Bilateral ovariectomy was performed under isoflurane-induced anesthesia. […] Randomization and treatments were started one week later. […] The 17 groups included two control groups (OVX and OVX+Estrone), seven groups supplemented with an estrone implant and treated with an antiestrogen and eight other groups that received an antiestrogen alone. The estrone implants were then removed from the animals in the ovariectomized control group (OVX) and in groups that were to receive the antiestrogen alone. […] Tamoxifen was purchased from […], Israel) while toremifene citrate was purchased from Orion (Espoo, Finland). […] Animals in both control groups received 0.2 ml of the vehicle alone. The antiestrogen suspensions at the appropriate concentration were prepared each month, stored at 4° C. and used under constant agitation. Powder stock were hermetically stored at 4° C. […] Tumor response was assessed at the end of the study or at death of each animal, if it occurred during the course of the experiment. In this case, only data of mice that survived for at least half of the study (84 days) were used in the tumor response analysis.
# [3] = system: breast and endometrial tissues; test: Antiestrogens tested for SERM function and estrogenic activity in breast and endometrium
# [4] = 50 μg daily + estrone, 161 days
smiles,measurement,setting,value
"CC1=C(c2ccc(O)cc2)[C@H](c2ccc(OCCN3CCCCC3)cc2)Oc2cc(O)ccc21.Cl [EM-652.HCl, (S)-(+)-7-hydroxy-3-(4′-hydroxyphenyl)-4-methyl-2-(4″-(2′″-piperidinoethoxy)phenyl)-2H-1-benzopyran hydrochloride]",OVX-induced fat percentage increase,[1],completely prevented
same,Serum ALP,[1],91 ± 6 IU/L
same,Serum cholesterol,[1],0.87 ± 0.04 mmol/L
same,Femoral BMD,[2],completely prevented the further decrease
same,Lumbar spine BMD,[2],completely prevented the further decrease
same,Total body fat,[2],prevented the 17% increase
same,"Complete response, of tumors",ZR-75-1 breast tumors; [4],17%
same,"Partial response, of tumors",ZR-75-1 breast tumors; [4],17%
same,Progressing tumors,ZR-75-1 breast tumors; [4],7%
same,"Stable response, of tumors",ZR-75-1 breast tumors; [4],60%
same,Effect on estrone-stimulated tumor growth,"ZR-75-1 breast tumors; 50 μg daily oral + estrone, 23 weeks",completely prevented tumor growth
same,Change of ZR-75-1 tumor size compared to the OVX control group,"ZR-75-1 breast tumors; 200 μg daily alone, absence of estrone, 161 days",did not significantly change
same,Function as SERM,[3],found to function as SERMs
same,Estrogenic activity in breast and endometrial tissues,[3]; physiological or pharmacological concentrations,do not have any estrogenic activity
